Measurements reported in publication PMC5218480 (PLoS ONE, 2017).

Tested on: MV-4-11 cells
Assay: Gene expression microarray analysis (Affymetrix PrimeView) and GSEA
Format: cell-based, human
Set-up: RFU PODN (11730768_x_at) / Fold change /veh PODN (11730768_x_at) / RFU LINC00158 (11744669_a_at) / Fold change /veh LINC00158 (11744669_a_at) / RFU DUSP10 (11751237_a_at) / Fold change /veh DUSP10 (11751237_a_at) / RFU ID3 (11757404_x_at) / Fold change /veh ID3 (11757404_x_at) / RFU PLEKHG5 (11737974_s_at) / Fold change /veh PLEKHG5 (11737974_s_at) / RFU LRRC4B (11730491_at) / Fold change /veh LRRC4B (11730491_at) / RFU GIMAP4 (11747438_a_at) / Fold change /veh GIMAP4 (11747438_a_at) / RFU KRT8 (11758183_x_at) / Fold change /veh KRT8 (11758183_x_at) / RFU CNN1 (11734310_a_at) / Fold change /veh CNN1 (11734310_a_at) / RFU VPS37D (11726825_at) / Fold change /veh VPS37D (11726825_at) / RFU C10orf10 (11716522_x_at) / Fold change /veh C10orf10 (11716522_x_at) / RFU KIR2DL2 /// KIR2DL4 /// KIR2DL5A /// KIR2DL5B /// KIR2DS1 /// KIR2DS2 /// KIR2DS3 /// KIR2DS4 /// KIR3DL3 /// KIR3DL3 /// KIR3DS1 (11738374_at) / Fold change /veh KIR2DL2 /// KIR2DL4 /// KIR2DL5A /// KIR2DL5B /// KIR2DS1 /// KIR2DS2 /// KIR2DS3 /// KIR2DS4 /// KIR3DL3 /// KIR3DL3 /// KIR3DS1 (11738374_at) / RFU C1QL1 (11718748_at) / Fold change /veh C1QL1 (11718748_at) / RFU TMPRSS4 (11747572_a_at) / Fold change /veh TMPRSS4 (11747572_a_at) / RFU HAMP (11756126_x_at) / Fold change /veh HAMP (11756126_x_at) / RFU RNFT2 (11725882_a_at) / Fold change /veh RNFT2 (11725882_a_at) / RFU NR4A2 (11747474_a_at) / Fold change /veh NR4A2 (11747474_a_at) / RFU ABCC12 (11746883_a_at) / Fold change /veh ABCC12 (11746883_a_at) / RFU TMEM136 (11760407_x_at) / Fold change /veh TMEM136 (11760407_x_at) / RFU CLDN22 /// WWC2 (11732394_at) / Fold change /veh CLDN22 /// WWC2 (11732394_at) / RFU HLA-DPB1 (11760878_x_at) / Fold change /veh HLA-DPB1 (11760878_x_at) / RFU SPINT1 (11716480_a_at) / Fold change /veh SPINT1 (11716480_a_at) / RFU GAP43 (11754022_s_at) / Fold change /veh GAP43 (11754022_s_at) / RFU A4GNT (11735810_at) / Fold change /veh A4GNT (11735810_at) / RFU PRB3 (11715151_x_at) / Fold change /veh PRB3 (11715151_x_at) / RFU TUBB4B (11761932_at) / Fold change /veh TUBB4B (11761932_at) / RFU CAPN14 (11732068_a_at) / Fold change /veh CAPN14 (11732068_a_at) / RFU TMCC2 (11721928_a_at) / Fold change /veh TMCC2 (11721928_a_at) / RFU IRGQ (11745062_a_at) / Fold change /veh IRGQ (11745062_a_at) / RFU FAM174B (11720279_a_at) / Fold change /veh FAM174B (11720279_a_at) / RFU TMPRSS4 (11748680_a_at) / Fold change /veh TMPRSS4 (11748680_a_at) / RFU FAM212B (11763350_a_at) / Fold change /veh FAM212B (11763350_a_at) / RFU PLEKHG5 (11743358_a_at) / Fold change /veh PLEKHG5 (11743358_a_at) / RFU ZSCAN30 (11745921_a_at) / Fold change /veh ZSCAN30 (11745921_a_at) / RFU CMKLR1 (11741424_a_at) / Fold change /veh CMKLR1 (11741424_a_at) / RFU LOC101060620 /// MAPK8IP1 (11723275_at) / Fold change /veh LOC101060620 /// MAPK8IP1 (11723275_at) / RFU SPTSSB (11747773_x_at) / Fold change /veh SPTSSB (11747773_x_at) / RFU PRSS12 (11739890_at) / Fold change /veh PRSS12 (11739890_at) / RFU BIN1 (11741810_x_at) / Fold change /veh BIN1 (11741810_x_at) / RFU WNT11 (11732464_a_at) / Fold change /veh WNT11 (11732464_a_at) / RFU C10orf10 (11716521_a_at) / Fold change /veh C10orf10 (11716521_a_at) / RFU C5orf56 (11738089_at) / Fold change /veh C5orf56 (11738089_at) / RFU CYB561 (11721691_x_at) / Fold change /veh CYB561 (11721691_x_at) / RFU ANKRD19P (11752326_a_at) / Fold change /veh ANKRD19P (11752326_a_at) / RFU OR2T12 /// OR2T33 /// OR2T8 (11738714_s_at) / Fold change /veh OR2T12 /// OR2T33 /// OR2T8 (11738714_s_at) / RFU VCAN (11748164_a_at) / Fold change /veh VCAN (11748164_a_at) / RFU JSRP1 (11732532_at) / Fold change /veh JSRP1 (11732532_at) / RFU KRTAP10-11 (11738290_x_at) / Fold change /veh KRTAP10-11 (11738290_x_at) / RFU MYO3A (11730013_a_at) / Fold change /veh MYO3A (11730013_a_at) / RFU EBF3 (11725865_a_at) / Fold change /veh EBF3 (11725865_a_at) / RFU CAMK2N1 (11719241_x_at) / Fold change /veh CAMK2N1 (11719241_x_at) / RFU C5orf56 (11738088_a_at) / Fold change /veh C5orf56 (11738088_a_at) / RFU OLFML3 (11715873_a_at) / Fold change /veh OLFML3 (11715873_a_at) / RFU LOC100653217 /// NTM (11731650_a_at) / Fold change /veh LOC100653217 /// NTM (11731650_a_at) / RFU MAPK11 (11762145_a_at) / Fold change /veh MAPK11 (11762145_a_at) / RFU FIZ1 (11724087_x_at) / Fold change /veh FIZ1 (11724087_x_at) / RFU OASL (11726364_x_at) / Fold change /veh OASL (11726364_x_at) / RFU SOX15 (11748057_x_at) / Fold change /veh SOX15 (11748057_x_at) / RFU CD79A (11719716_a_at) / Fold change /veh CD79A (11719716_a_at) / RFU HIST1H1D (11736915_at) / Fold change /veh HIST1H1D (11736915_at) / RFU CASKIN2 (11723855_a_at) / Fold change /veh CASKIN2 (11723855_a_at) / RFU LOC730098 (11760151_x_at) / Fold change /veh LOC730098 (11760151_x_at) / RFU OR4N2 (11742367_at) / Fold change /veh OR4N2 (11742367_at) / RFU PRRT2 (11749266_a_at) / Fold change /veh PRRT2 (11749266_a_at) / RFU SNX32 (11753110_a_at) / Fold change /veh SNX32 (11753110_a_at) / RFU CDHR5 (11726645_a_at) / Fold change /veh CDHR5 (11726645_a_at) / RFU RCAN1 (11760418_a_at) / Fold change /veh RCAN1 (11760418_a_at) / RFU FAM167A (11723789_a_at) / Fold change /veh FAM167A (11723789_a_at) / RFU FAM26E (11764081_at) / Fold change /veh FAM26E (11764081_at) / RFU ISYNA1 (11749810_s_at) / Fold change /veh ISYNA1 (11749810_s_at) / RFU ACY1 (11761880_at) / Fold change /veh ACY1 (11761880_at) / RFU 11764098_at / Fold change /veh 11764098_at / RFU SAMD14 (11745864_x_at) / Fold change /veh SAMD14 (11745864_x_at) / RFU NPB (11741838_a_at) / Fold change /veh NPB (11741838_a_at) / RFU TMPRSS6 (11731388_a_at) / Fold change /veh TMPRSS6 (11731388_a_at) / RFU KRTAP10-2 (11738614_at) / Fold change /veh KRTAP10-2 (11738614_at) / RFU ARHGAP8 /// PRR5-ARHGAP8 (11727945_x_at) / Fold change /veh ARHGAP8 /// PRR5-ARHGAP8 (11727945_x_at) / RFU KRTAP5-7 /// NADSYN1 (11734609_at) / Fold change /veh KRTAP5-7 /// NADSYN1 (11734609_at) / RFU RASL12 (11751679_a_at) / Fold change /veh RASL12 (11751679_a_at) / RFU CDKN2B (11736163_a_at) / Fold change /veh CDKN2B (11736163_a_at) / RFU PRF1 (11729649_at) / Fold change /veh PRF1 (11729649_at) / RFU, ZNF638 /// ZNF638-IT1 / Fold change vs veh, ZNF638 /// ZNF638-IT1 / RFU, PANK3 / Fold change vs veh, PANK3 / RFU, SH3YL1 / Fold change vs veh, SH3YL1 / RFU, ZEB2 / Fold change vs veh, ZEB2 / RFU, NRIP1 / Fold change vs veh, NRIP1 / RFU, PTTG1IP / Fold change vs veh, PTTG1IP / RFU, CAPN2 / Fold change vs veh, CAPN2 / RFU, MED14 / Fold change vs veh, MED14 / RFU, SNORA58 / Fold change vs veh, SNORA58 / RFU, C1orf63 / Fold change vs veh, C1orf63 / RFU, LRRFIP1 / Fold change vs veh, LRRFIP1 / RFU, NDUFAF7 / Fold change vs veh, NDUFAF7 / RFU, SLC12A2 / Fold change vs veh, SLC12A2 / RFU, IBTK / Fold change vs veh, IBTK / RFU, ESF1 / Fold change vs veh, ESF1 / Fold change vs veh, TMEM50B / RFU, TAOK1 / Fold change vs veh, TAOK1 / RFU, ACBD3 / Fold change vs veh, ACBD3 / RFU, TMA16 / Fold change vs veh, TMA16 / RFU, RWDD3 / Fold change vs veh, RWDD3 / RFU, BCAT1 / Fold change vs veh, BCAT1 / RFU, EDEM3 / Fold change vs veh, EDEM3 / RFU, TMEM33 / Fold change vs veh, TMEM33 / RFU, WDR75 / Fold change vs veh, WDR75 / RFU, AHCTF1 / Fold change vs veh, AHCTF1 / RFU, TFRC / Fold change vs veh, TFRC / RFU, ZDHHC17 / Fold change vs veh, ZDHHC17 / RFU, NOM1 / Fold change vs veh, NOM1 / RFU, ARL8B / Fold change vs veh, ARL8B / RFU, ZBTB11 / Fold change vs veh, ZBTB11 / RFU, TAMM41 / Fold change vs veh, TAMM41 / RFU, KIAA1704 /// LOC100996395 / Fold change vs veh, KIAA1704 /// LOC100996395 / RFU, ING1 / Fold change vs veh, ING1 / RFU, TRMT61B / Fold change vs veh, TRMT61B / RFU, FUBP3 / Fold change vs veh, FUBP3 / RFU, TP53 / Fold change vs veh, TP53 / RFU, TNKS2 / Fold change vs veh, TNKS2 / RFU, ZFP14 / Fold change vs veh, ZFP14 / RFU, ACTR2 / Fold change vs veh, ACTR2 / RFU, PPP3R1 / Fold change vs veh, PPP3R1 / RFU, PIK3R1 / Fold change vs veh, PIK3R1 / RFU, HNRNPA1 / Fold change vs veh, HNRNPA1 / RFU, RNF170 / Fold change vs veh, RNF170 / RFU, ZNF28 / Fold change vs veh, ZNF28 / RFU, RNGTT / Fold change vs veh, RNGTT / RFU, OGT / Fold change vs veh, OGT / RFU, BRD1 / Fold change vs veh, BRD1 / RFU, MARS / Fold change vs veh, MARS / RFU, ZNF655 / Fold change vs veh, ZNF655 / RFU, FAHD1 / Fold change vs veh, FAHD1 / RFU, BDP1 / Fold change vs veh, BDP1 / RFU, LRRCC1 / Fold change vs veh, LRRCC1 / RFU, ARID1A / Fold change vs veh, ARID1A / RFU, ZNF146 / Fold change vs veh, ZNF146 / RFU, ZNF330 / Fold change vs veh, ZNF330 / RFU, GPN3 / Fold change vs veh, GPN3 / RFU, C9orf123 / Fold change vs veh, C9orf123 / RFU, N4BP2L2 / Fold change vs veh, N4BP2L2 / RFU, ARFIP1 / Fold change vs veh, ARFIP1 / RFU, FAM179B / Fold change vs veh, FAM179B / RFU, BCL10 / Fold change vs veh, BCL10 / RFU, UHRF1BP1L / Fold change vs veh, UHRF1BP1L / RFU, BET1 / Fold change vs veh, BET1 / RFU, CNOT2 / Fold change vs veh, CNOT2 / RFU, ZNF268 / Fold change vs veh, ZNF268 / Fold change vs veh, ZNF507 / RFU, DGCR2 / Fold change vs veh, DGCR2 / RFU, WDSUB1 / Fold change vs veh, WDSUB1 / Fold change vs veh, HSP90B1 /// MIR3652 / RFU, ADSS / Fold change vs veh, ADSS / RFU, GK / Fold change vs veh, GK / RFU, ZNF148 / Fold change vs veh, ZNF148 / RFU, TAF9 / Fold change vs veh, TAF9 / RFU, SLC1A5 / Fold change vs veh, SLC1A5 / RFU, SLMO2 / Fold change vs veh, SLMO2 / RFU, ABCC4 / Fold change vs veh, ABCC4 / RFU, LOC101060439 /// RAP1B / Fold change vs veh, LOC101060439 /// RAP1B / RFU, RFX7 / Fold change vs veh, RFX7 / RFU, GTPBP10 / Fold change vs veh, GTPBP10 / RFU, CNEP1R1 / Fold change vs veh, CNEP1R1 / RFU, BIVM-ERCC5 /// ERCC5 / Fold change vs veh, BIVM-ERCC5 /// ERCC5 / RFU, ILF3 / Fold change vs veh, ILF3 / RFU 11762660_at / Fold change /veh 11762660_at / RFU VCAN (11757783_s_at) / Fold change /veh VCAN (11757783_s_at) / RFU DDX43 (11728927_at) / Fold change /veh DDX43 (11728927_at) / RFU KRT8 (11758188_x_at) / Fold change /veh KRT8 (11758188_x_at) / RFU NKD1 (11759106_at) / Fold change /veh NKD1 (11759106_at) / RFU SRD5A1 (11742802_a_at) / Fold change /veh SRD5A1 (11742802_a_at) / RFU TPSAB1 /// TPSB2 (11721975_s_at) / Fold change /veh TPSAB1 /// TPSB2 (11721975_s_at) / RFU GSTM3 (11746129_a_at) / Fold change /veh GSTM3 (11746129_a_at) / RFU IL23R (11737362_x_at) / Fold change /veh IL23R (11737362_x_at) / RFU TMEM51 (11727254_a_at) / Fold change /veh TMEM51 (11727254_a_at) / RFU PIWIL2 (11732686_x_at) / Fold change /veh PIWIL2 (11732686_x_at) / RFU ORM1 (11744905_x_at) / Fold change /veh ORM1 (11744905_x_at) / RFU CCDC152 (11743942_at) / Fold change /veh CCDC152 (11743942_at) / RFU ECM1 (11717891_a_at) / Fold change /veh ECM1 (11717891_a_at) / RFU IL23R (11748794_a_at) / Fold change /veh IL23R (11748794_a_at) / RFU TNFAIP8L3 (11732012_x_at) / Fold change /veh TNFAIP8L3 (11732012_x_at) / RFU MBOAT4 (11741988_at) / Fold change /veh MBOAT4 (11741988_at) / RFU 11764193_at / Fold change /veh 11764193_at / RFU TMEM53 (11763286_at) / Fold change /veh TMEM53 (11763286_at) / RFU MAGEB2 (11727129_at) / Fold change /veh MAGEB2 (11727129_at) / RFU TMEM200A (11744735_a_at) / Fold change /veh TMEM200A (11744735_a_at) / RFU CCDC152 (11751479_a_at) / Fold change /veh CCDC152 (11751479_a_at) / RFU FAM211A (11726209_a_at) / Fold change /veh FAM211A (11726209_a_at) / RFU RGS16 (11746705_a_at) / Fold change /veh RGS16 (11746705_a_at) / RFU VCAN (11755009_s_at) / Fold change /veh VCAN (11755009_s_at) / RFU RHOB (11743442_s_at) / Fold change /veh RHOB (11743442_s_at) / RFU RGS16 (11720943_a_at) / Fold change /veh RGS16 (11720943_a_at) / RFU RGS16 (11720944_at) / Fold change /veh RGS16 (11720944_at) / RFU, VPS4B / Fold change vs veh, VPS4B / RFU, CREB1 / Fold change vs veh, CREB1 / RFU, DNAJC13 / Fold change vs veh, DNAJC13 / RFU, GNAQ / Fold change vs veh, GNAQ / RFU, CDK5R1 / Fold change vs veh, CDK5R1 / RFU, ZRANB3 / Fold change vs veh, ZRANB3 / RFU, CUL4A / Fold change vs veh, CUL4A / RFU, CCNY / Fold change vs veh, CCNY / RFU, UFL1 / Fold change vs veh, UFL1 / RFU, COG3 / Fold change vs veh, COG3 / RFU, DIAPH2 / Fold change vs veh, DIAPH2 / RFU, SKA2 / Fold change vs veh, SKA2 / RFU, AFF3 / Fold change vs veh, AFF3 / RFU, LMF1 / Fold change vs veh, LMF1 / RFU, IPO11 / Fold change vs veh, IPO11 / RFU, DFFB / Fold change vs veh, DFFB / RFU, FOXP1 / Fold change vs veh, FOXP1 / RFU, CARD8 / Fold change vs veh, CARD8 / RFU, STRN3 / Fold change vs veh, STRN3 / RFU, ADK / Fold change vs veh, ADK / RFU, RASSF2 / Fold change vs veh, RASSF2 / RFU, WIPF1 / Fold change vs veh, WIPF1 / RFU, LARP1B / Fold change vs veh, LARP1B / RFU, RASA1 / Fold change vs veh, RASA1 / RFU, RB1 / Fold change vs veh, RB1 / RFU, PPFIA1 / Fold change vs veh, PPFIA1 / RFU, MAT2A / Fold change vs veh, MAT2A / RFU, CCT5 / Fold change vs veh, CCT5 / RFU, WDR92 / Fold change vs veh, WDR92 / RFU, CUX1 / Fold change vs veh, CUX1 / RFU, TTC7A / Fold change vs veh, TTC7A / RFU, TMEM135 / Fold change vs veh, TMEM135 / RFU, DEPTOR / Fold change vs veh, DEPTOR / RFU, CPM / Fold change vs veh, CPM / RFU, DNAJB6 / Fold change vs veh, DNAJB6 / RFU, CACNA2D3 / Fold change vs veh, CACNA2D3 / RFU, DTX4 / Fold change vs veh, DTX4 / RFU, TFCP2 / Fold change vs veh, TFCP2 / RFU, GMCL1 /// GMCL1P1 / Fold change vs veh, GMCL1 /// GMCL1P1 / RFU, AEBP2 / Fold change vs veh, AEBP2 / RFU, SNHG1 /// SNORD22 /// SNORD25 /// SNORD26 /// SNORD27 /// SNORD28 /// SNORD29 /// SNORD31 / Fold change vs veh, SNHG1 /// SNORD22 /// SNORD25 /// SNORD26 /// SNORD27 /// SNORD28 /// SNORD29 /// SNORD31 / Fold change (Aza/veh), C12orf56 (ProbeSet 11735607_a_at) / Fold change (ACY-1035/veh), C12orf56 (ProbeSet 11735607_a_at) / Fold change (Aza/veh), FGFR1OP (ProbeSet 11751329_s_at) / Fold change (ACY-1035/veh), FGFR1OP (ProbeSet 11751329_s_at) / Fold change (Aza/veh), VPS36 (ProbeSet 11739960_a_at) / Fold change (ACY-1035/veh), VPS36 (ProbeSet 11739960_a_at) / RFU SYPL1 (11715823_x_at) / Fold change /veh SYPL1 (11715823_x_at) / RFU IGFBP7 (11715501_s_at) / Fold change /veh IGFBP7 (11715501_s_at) / RFU REEP3 (11722064_at) / Fold change /veh REEP3 (11722064_at) / RFU IGLL1 (11728026_x_at) / Fold change /veh IGLL1 (11728026_x_at): dose or concentration left out as unconfirmed
Conditions: MV-4-11 cells, 48 hours

Nc1ccc(-c2cccs2)cc1NC(=O)c1ccc2c(c1)cc(C1CC1)n2CCN1CCOCC1 [ACY-1035]
Fold change /veh MAPK11 (11762145_a_at): 0.89
